One may read the logD as lipophilicity at a set pH, counting ionised and neutral species.

Data set [1] has as its system rats. As to the kind of experiment: Animal test: blood lipid level and cholesterol in rats. The format is in vivo. The following applies: twice per day, 0.05 or 0.1 mg/dose/rat, blood samples after one week. The method, then:
Compound 1, 2 or 3 prepared in examples 1-3 were administered to rats (10 rats in each group), respectively, twice per day, 0.05 mg/dose/rat or 0.1 mg/dose/rat. Blood samples were taken and analyzed after one week for blood lipid level and cholesterol.

Data set [2] is described as follows: physchem. The settings on record: pH 7.4.

Take `CCC(C)(C)C(=O)OC1CC(O)C=C2C=CC(C)C(CCC3CC(O)CC(=O)O3)C21` (stereo not drawn) [Compound 1, 2,2-Dimethylbutyricacid-3-hydroxy-8-[2-(4-hydroxy-6-oxo-tetrahydropyran-2-yl)-ethyl]-7-methyl-1,2,3,7,8,8a-hexahydronaphthalen-1-yl ester]: the “blood lipid versus control group” value in data set [1] is reported as “lower than that of the control group”. The same compound registered a logD in data set [2] of 0.82.
Take `CCC(C)(C)C(=O)OC1CC(O)C=C2C=CC(C)C(CCC3CC(CC(=O)O)OC(C)(C)O3)C21` (stereo not drawn) [Compound 3]: the “blood lipid versus control group” value in data set [1] was “lower than that of the control group”.

Source of the values: US20070185193A1, “Huvastatin and its preparation and formulation comprising the huvastatin” (HUAIBEI HUIKE PHARMACEUTICAL, CO. LTD., priority 2003, published 2007).
